Measured values from patent publication US10285994B2, “Method of preventing or treating osteoporosis by neddylation inhibitor” (Chang Gung University, priority 2017, dated 2019).

What was measured:
cathepsin K = test: Cathepsin K activity fluorometric assay, BMMs; format: cell-based, mouse; details: FIG. 1C
Experimental: FIGS. 1A-1D are data collected from primary mouse bone marrow-derived macrophages (BMMs) respectively incubated in the medium containing the soluble recombinant RANKL (sRANKL, 50 ng/ml), macrophage colony-stimulating factor (M-CSF, 40 ng/ml) and specified concentrations of MLN4924 for 7 days according to example 1.1 of the present disclosure. FIG. 1A: the photographs of TRAP staining depicting the differentiation of osteoclasts from BMMs. FIG. 1B: after the differentiation of osteoclasts in Corning Osteo Surface (a synthetic 3-dimensional structure that mimics in vivo bone for in vitro bone cell assays), the cells were removed, and the resorbed areas for confirming osteoclast activity were analyzed by 1% toluidine blue staining. FIG. 1C: the culture medium is subject to Biovision Cathepsin K Activity Fluorometric Assay Kit for the analysis of cathepsin K activity. FIG. 1D: the effect of effective doses of MLN4924 on the viability of BMMs is evaluated by MTT assay. Scale bar represents 100 μm. Data are expressed as mean±SD where *p<0.05; **p<0.01.
The pre-osteoclasts and RAW264.7 cells were seeded into Corning Osteo Surface Assay 96-wells plate (Corning, Kennebunk, Me.). Twenty-four hours later, the cells were treated with sRANKL (50 ng/ml) and specified concentrations of MLN4924 for 7 days. […]

[1] = test system: ovariectomized (OVX) mice; test: Three-point bending test of femurs of OVX + sRANKL mice; format: in vivo, mouse; details: 10 mg/kg i.p. once daily for 2 weeks
Source text: FIGS. 7A-7D are histograms respectively depicting the mechanical properties of femurs in control, OVX, OVX+RANKL, and OVX+RANKL+MLN4924 groups according to example 5.2 of the present disclosure, including modulus (FIG. 7A), strain at break (FIG. 7B), stress at yield (FIG. 7C), and load at break (FIG. 7D). Values are expressed as mean±SD, N=6 per group. *p<0.05; **p<0.01.
All experimental procedures were approved by the Institutional Animal Care and Use Committee of the Chang Gung Memorial Hospital at Chiayi and complied with the Guideline for the Care and Use of Laboratory Animals available through the National Academy of Sciences (IACUC number: 2013100102 and 2015103001). All efforts were made to minimize the suffering of the animals. C57BL/6J female mice (6-8 weeks old; obtained from BioLasco in Taiwan) were operated ovariectomy surgery (OVX). 48 hours later of OVX operation, sRANKL (1 mg/kg) or saline was injected intraperitoneally once daily for two days followed by intraperitoneal injection of MLN4924 (10 mg/kg) once daily for 2 weeks. Mice were sacrificed with CO2 asphyxiation, and the tibias and femurs were isolated therefrom. The tibias were subject to histochemistry assay, and the femurs were subject to bending test and tomographic analysis by MTS (Testresources, Shakopee, Minn.) and Skyscan 1272 (Bruker, Kontich, Belgium), respectively. Serum levels of cross linked C-telopeptide of type I collagen (CTX-1) (CEA665Mu) was measured by specific ELISA kit (USCN life science incorporation, Wuhan, Hubei, China).
The femurs were tested to failure by three-point bending on an MTS Synergie 200 (Testresources, Shakopee, Minn.). The speed of load application was set as 1 mm/min with preload of 1N, load cell of 500N, settling time of 30 seconds and distance between the points of 10 mm. Force-displacement data were plotted from the structural properties, including modulus, load at break, stress at yield and strain at yield.
Bone loss results in bone fragile, thus rendering bone being easier to break. In this example, mice were first treated with OVX or OVX+sRANKL to cause bone loss, and then MLN4924 was administered. The femurs of mice were then subject to shaft fracture testing by three-point bending so as to evaluate the biomechanical properties thereof.

P38 (pP38) = test: Western blot, sRANKL-induced P38 phosphorylation in RAW264.7 cells; format: cell-based, mouse; details: RAW264.7, 30 min pre-treatment, sRANKL 50 ng/ml, FIG. 3A-3B
Experimental: FIGS. 3A-3D are data collected from Western blot analysis that respectively depict the expression of specified protein extracted from the RAW264.7 cells, which are pre-treated with specified concentrations of MLN4924 for 30 minutes followed by the stimulation of sRANKL (50 ng/ml) according to example 2 of the present disclosure. FIG. 3A: the time course effect of MLN4924 on the phosphorylations of ERK (pERK), P38 (pP38) and JNK (pJNK). FIG. 3B: the dose effect of MLN4924 on the phosphorylations of ERK (pERK), P38 (pP38) and JNK (pJNK). FIG. 3C: the time course effect of MLN4924 on the expression of NFATc-1. FIG. 3D: the dose effect of MLN4924 on the expression of NFATc-1. Mock: untreated control; R: sRANKL; M: MLN4924.
The RAW264.7 cells were starved with serum-free medium for six hours and then treated with the specified treatments. At indicated time points, the cells were washed with cold phosphate-buffered saline (PBS) and lysed in RIPA buffer containing complete protease inhibitor cocktail (Roche). The cell lysates were separated by SDS-PAGE followed by Western blotting with the indicated antibodies, including NEDD8, APPBP1, UBA3.
Specifically, the inhibitory effect increased with an increase in the MLN4924 concentration (FIG. 3B).

Structure (SMILES): NS(=O)(=O)OC[C@@H]1C[C@@H](n2ccc3c(N[C@H]4CCc5ccccc54)ncnc32)C[C@@H]1O [MLN4924, (1S,2S,4R)-4-(4-((1S)-2,3-Dihydro-1H-inden-1-ylamino)-7H-pyrrolo(2,3-d)pyrimidin-7-yl)-2-hydroxycyclopentyl) methyl sulphamate]
- basal activity of cathepsin K (cathepsin K; MLN4924 alone without sRANKL): did not affect the basal activity of cathepsin K in macrophages
- activity of cathepsin K versus sRANKL group (cathepsin K; with sRANKL): significantly reduced the activity of cathepsin K
- femur modulus ([1]; FIG. 7A): prevented the levels of these parameters from dropping
- femur strain at break ([1]; FIG. 7B): prevented the levels of these parameters from dropping
- femur stress at yield ([1]; FIG. 7C): prevented the levels of these parameters from dropping
- femur load at break ([1]; FIG. 7D): prevented the levels of these parameters from dropping
- sRANKL-upregulated phosphorylation of P38 (pP38) (P38 (pP38)): inhibited
